The text below walks through data of patent US20080153866A1, “Amorphous Taclolimus Solid Dispersion Having an Enhanced Solubility and Pharmaceutical Composition Comprising Same” (Hinmi Pharm Co., Ltd, priority 2005, published 2008).

A short description of series [1]: Thermodynamic stability test (endothermic peak in DSC scan). Type of series: physicochemical. The source says:
The mixture of Comparative Example 1, solid dispersion of Example 1 and crystalline taclolimus were each subjected to a thermodynamic stability test by examining the change in the endothermic peak in its DSC scan. The temperatures representing respective endothermic peaks are represented in Table 17, and the overall DSC results are shown in FIG. 1.
(DSC measures the heat that a sample takes up or gives off during a temperature scan.)

The conditions of series [2]: cited from earlier work.

In the case of `C=CC[C@@H]1/C=C(\C)C[C@H](C)C[C@H](OC)[C@H]2O[C@@](O)(C(=O)C(=O)N3CCCCC3C(=O)O[C@H](/C(C)=C/C3CC[C@@H](O)[C@H](OC)C3)[C@H](C)[C@@H](O)CC1=O)[C@H](C)C[C@@H]2OC` (stereo partly drawn) [Taclolimus, (—)-(1R,9S,13R,14S,17R,18E,21S,23S,24R,25S,27R)-17-allyl-1,14-dihydroxy-12-[(E)-2-[(1R,3R,4R)-4-hydroxy-3-methoxycyclohexyl]-1-methylvinyl]-23,25-dimethoxy-13,19,21,27-tetramethyl-11,28-dioxa-4-azatricyclo[22.3.1.0^4.9]octacos-18-ene-2,3,10,16-tetrone hydrate], the Endothermic peak temperature in series [1] was found to be 127.0 °C. Besides, in series [2] (organic solvents such as anhydrous ethanol), the “Solubility in organic solvents” value was “very soluble”. In addition, the Solubility in water entry in series [2] (water) is on record as “insoluble in water”.
